Some test systems named below: 786-0; A549; HCT-15; HL-60; HOP-62; HT-29; IGROV-1; MDA-MB-231; Malme-3M; OVCAR-3; OVCAR-4; OVCAR-5; SF-295; SK-MEL-28; SN12C; SNB-19; SR; U-251; UACC-257; UACC-62.
Assay in all cases: DTP human tumour cell line panel, 48 h

Molecules are shown by their SMILES.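 Tested at 5 concentrations; 48 h exposure; 96-well plates; endpoints linearly interpolated, else capped at highest concentration. Abbreviation: GI50, concentration required for 50% inhibition of growth.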 Active and inactive are the calls of the source. Rule as the data show it: active = GI50 up to about 1.1 µM and inactive = higher. Some results are limits rather than exact numbers.

Usually GI50 stands for the concentration at which growth is held to half of that of the control.

Turning to `CCSCC(N)C(=O)O` (stereo not given), the GI50 in the assay with 786-0 was > 100 µM (inactive); in the assay on A549, > 100 µM (inactive); with HCT-15 it was more than 100 µM; in the assay with HL-60 it was > 100 µM (inactive); in the assay with HOP-62, > 100 µM (inactive); in the assay with HT-29, > 100 µM (inactive). The GI50 in the assay on IGROV-1, in the assay on MDA-MB-231, with Malme-3M, in the assay with OVCAR-3, in the assay on OVCAR-4 and with OVCAR-5 was > 100 µM (inactive) each time. Also, the GI50 in the assay with SF-295, in the assay with SK-MEL-28, in the assay with SN12C, with SNB-19, in the assay with SR and with U-251 was > 100 µM (inactive) throughout. Moreover, the GI50 in the assay with UACC-257 and in the assay on UACC-62 was > 100 µM (inactive) each time.
Regarding `O=c1c2ccccc2n2nnc3ccc(NCCCNCCNCCCNc4ccc5nnn6c7ccccc7c(=O)c4c56)c1c32`, the concentration for 50% growth inhibition (GI50) is 0.48 µM (active) in the assay on 786-0; 0.612 µM (active) with A549; 3.33 µM with HCT-15; 1.1 µM (active) in the assay with HL-60; 2.99 µM (inactive) with HOP-62; 0.121 µM (active) with HT-29. Moreover, the GI50 was 0.57 µM (active) with IGROV-1; 1.01 µM (active) in the assay on MDA-MB-231; 5.83 µM (inactive) in the assay on Malme-3M; 6.35 µM (inactive) in the assay on OVCAR-3; 2.3 µM (inactive) in the assay on OVCAR-4; 6.44 µM (inactive) in the assay on OVCAR-5. Moreover, the GI50 in the assay with SF-295 was 5.89 µM (inactive); with SK-MEL-28 it was > 18.5 µM (inactive); in the assay with SN12C it was 0.457 µM (active); in the assay on SNB-19, 6.84 µM (inactive); with SR, 0.0883 µM (active); in the assay on U-251, 0.759 µM (active). The GI50 in the assay on UACC-257 was 8.73 µM (inactive); in the assay with UACC-62, 14.1 µM (inactive).
As for `CN(CC1(CO)CCC1)c1cc(Cl)nc(N)n1`, the GI50 in the assay on 786-0 is > 100 µM (inactive); in the assay with A549, > 100 µM (inactive); in the assay with HCT-15, more than 100 µM; in the assay on HL-60, > 100 µM (inactive); in the assay with HOP-62, > 100 µM (inactive); in the assay on HT-29, > 100 µM (inactive). Further, the GI50 in the assay on IGROV-1 was > 100 µM (inactive); in the assay with MDA-MB-231 it was > 100 µM (inactive); with Malme-3M it was > 100 µM (inactive); in the assay with OVCAR-3, > 100 µM (inactive); in the assay with OVCAR-4, 58.9 µM (inactive); in the assay with OVCAR-5 it was > 100 µM (inactive). Also, the GI50 in the assay on SF-295, in the assay with SK-MEL-28, in the assay with SN12C, in the assay with SNB-19, with SR and with U-251 was > 100 µM (inactive) throughout. In addition, the GI50 in the assay on UACC-257 and in the assay on UACC-62 was > 100 µM (inactive) each time.
With `O/N=C1/CCCc2nonc21`, the GI50 with 786-0 is > 100 µM (inactive); in the assay on A549 it was > 100 µM (inactive); in the assay with HCT-15, more than 100 µM; with HL-60, > 100 µM (inactive); with HOP-62 it was > 100 µM (inactive); in the assay with HT-29 it was > 100 µM (inactive). For the same molecule, the GI50 in the assay with IGROV-1, in the assay on MDA-MB-231, in the assay on Malme-3M, in the assay on OVCAR-3, with OVCAR-4 and in the assay with OVCAR-5 was > 100 µM (inactive) in each case. The GI50 in the assay with SF-295, in the assay with SK-MEL-28, in the assay on SN12C, in the assay with SNB-19, in the assay with SR and with U-251 was > 100 µM (inactive) each time. The GI50 in the assay with UACC-257 and in the assay on UACC-62 was > 100 µM (inactive) in each case.
As to `COc1cc2nc(-c3cccs3)nc(Nc3cccc([N+](=O)[O-])c3)c2cc1OC`, the GI50 with 786-0 was 21.3 µM (inactive); with A549 it was 21.1 µM (inactive); in the assay with HCT-15, 16.5 µM; with HL-60 it was 43.4 µM (inactive); in the assay on HOP-62, 18.7 µM (inactive); in the assay with HT-29, 28.1 µM (inactive). Besides, the GI50 with IGROV-1 is 17.3 µM (inactive); in the assay on MDA-MB-231, 18 µM (inactive); in the assay on Malme-3M, 18.9 µM (inactive); in the assay with OVCAR-3, 20.7 µM (inactive); in the assay with OVCAR-4 it was 30.9 µM (inactive); in the assay on OVCAR-5 it was 17.8 µM (inactive). For the same molecule, the GI50 with SF-295 is 21.6 µM (inactive); with SK-MEL-28, 23.7 µM (inactive); in the assay on SN12C, 17.4 µM (inactive); with SNB-19, 17.6 µM (inactive); in the assay with SR it was 10.8 µM (inactive); with U-251 it was 17.3 µM (inactive). Further, the results for the GI50 in the assay on UACC-257 and in the assay with UACC-62 were 21.6 µM (inactive) and 16.8 µM (inactive), respectively.
Regarding `CN(C)CCNC(=O)C(C)(C)Oc1ccc(C(=O)c2ccc(Cl)cc2)cc1Cl`, the GI50 with 786-0 was 3.91 µM (inactive); in the assay on A549 it was 9.18 µM (inactive); in the assay on HCT-15, 3.3 µM; in the assay on HL-60 it was 5.26 µM (inactive); with HOP-62, 11.5 µM (inactive); in the assay on HT-29 it was 2.56 µM (inactive). In addition, the GI50 in the assay with IGROV-1 was 11.9 µM (inactive); in the assay on MDA-MB-231, 10.9 µM (inactive); in the assay with Malme-3M, 5.01 µM (inactive); in the assay on OVCAR-3, 12.6 µM (inactive); in the assay on OVCAR-4, 14.5 µM (inactive); in the assay on OVCAR-5 it was 15.1 µM (inactive). In addition, the GI50 with SF-295 was 10.6 µM (inactive); in the assay with SK-MEL-28 it was 1.94 µM (inactive); in the assay on SN12C it was 13.4 µM (inactive); in the assay with SNB-19 it was 13 µM (inactive); in the assay on SR, 6.84 µM (inactive); in the assay with U-251, 7.05 µM (inactive). Also, the results for the GI50 with UACC-257 and in the assay on UACC-62 were 2 µM (inactive) and 2.04 µM (inactive), respectively.
Regarding `COc1ccc(/N=C2\C(=S)N(c3ccc(OC)cc3)/C(=N/S(=O)(=O)c3ccccc3)N2c2ccccc2)cc1`, the GI50 in the assay with 786-0 is 7.14 µM (inactive); in the assay with A549, 34.9 µM (inactive); in the assay with HCT-15, 5.75 µM; with HL-60, 0.986 µM (active); in the assay on HOP-62, > 35.3 µM (inactive); in the assay on HT-29, 19.9 µM (inactive). The GI50 in the assay on IGROV-1 is 12.9 µM (inactive); with MDA-MB-231, 4.79 µM (inactive); with Malme-3M, 15.1 µM (inactive); in the assay with OVCAR-3 it was 5.5 µM (inactive); in the assay with OVCAR-4 it was 9.25 µM (inactive); in the assay on OVCAR-5, 17.3 µM (inactive). For the same molecule, the GI50 with SF-295 is 22.2 µM (inactive); in the assay on SK-MEL-28, 13.8 µM (inactive); with SN12C it was 15.1 µM (inactive); in the assay on SNB-19, 36.9 µM (inactive); in the assay on SR, 0.889 µM (active); in the assay on U-251 it was 8.53 µM (inactive). In addition, the GI50 is 13 µM (inactive) in the assay on UACC-257 and 6.07 µM (inactive) with UACC-62.
Turning to `C[n+]1c2ccccc2c(CNC(CCC(N)=O)C(=O)O)c2ccccc21` (stereo not given), the GI50 in the assay on 786-0 was 1.01 µM (active); in the assay on A549 it was 4.38 µM (inactive); in the assay on HCT-15 it was 1.24 µM; in the assay on HL-60, 0.239 µM (active); with HOP-62, 4.94 µM (inactive); in the assay on HT-29, 1.22 µM (inactive). Also, the GI50 in the assay with IGROV-1 was 4.15 µM (inactive); with MDA-MB-231 it was 5.36 µM (inactive); in the assay with Malme-3M, 4.44 µM (inactive); in the assay with OVCAR-3 it was 2.31 µM (inactive); in the assay on OVCAR-4 it was 3.46 µM (inactive); in the assay on OVCAR-5 it was 9.1 µM (inactive). Further, the GI50 is 6.71 µM (inactive) in the assay with SF-295; 5.96 µM (inactive) in the assay with SK-MEL-28; 2.64 µM (inactive) with SN12C; 6.18 µM (inactive) in the assay with SNB-19; 1.07 µM (active) in the assay with SR; 3.31 µM (inactive) with U-251. Also, the GI50 is 4.31 µM (inactive) in the assay with UACC-257 and 2.23 µM (inactive) with UACC-62.

For the origin of these results see ChEMBL document CHEMBL1201862, “PubChem BioAssay data set” (2004).
